Experimental findings from US20250230193A1, “CYCLIC COMPOUND HAVING SELECTIVE KRAS INHIBITORY EFFECT ON HRAS AND NRAS” (CHUGAI SEIYAKU KABUSHIKI KAISHA, priority 2022, published 2025) are described below.

Experiment [1] concerns the target GDP-bound NRAS wild-type protein (Homo sapiens, UniProt P01111). Description: Binding to NRAS by surface plasmon resonance (SPR), Single Cycle Kinetics. The settings on record: KD ratio, GDP-bound NRAS wild-type vs GDP-bound KRAS wild-type, SPR.
Experiment [2] has as its target GDP-bound HRAS wild-type protein (Homo sapiens, UniProt P01112). Briefly: Binding to HRAS by surface plasmon resonance (SPR), Single Cycle Kinetics. The settings on record: KD ratio, GDP-bound HRAS wild-type vs GDP-bound KRAS wild-type, SPR.

Chain of GDP-bound NRAS wild-type protein (P01111 whole entry): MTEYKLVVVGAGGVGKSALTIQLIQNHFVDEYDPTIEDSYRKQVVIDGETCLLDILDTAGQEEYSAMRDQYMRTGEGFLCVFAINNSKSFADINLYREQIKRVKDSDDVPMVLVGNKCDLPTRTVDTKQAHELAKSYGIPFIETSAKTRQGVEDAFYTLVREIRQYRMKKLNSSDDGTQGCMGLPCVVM
Chain of GDP-bound HRAS wild-type protein (P01112 whole entry): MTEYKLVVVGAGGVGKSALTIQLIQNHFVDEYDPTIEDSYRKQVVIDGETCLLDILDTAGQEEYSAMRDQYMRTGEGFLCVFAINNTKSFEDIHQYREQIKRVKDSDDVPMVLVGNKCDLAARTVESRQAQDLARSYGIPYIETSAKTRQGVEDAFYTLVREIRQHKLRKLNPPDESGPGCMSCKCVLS

Take `CCO[C@@H]1C[C@H]2C(=O)NC3(CCC3)C(=O)N(C)[C@@H](C3CCCC3)C(=O)N(C)[C@H](C(=O)N(C)C)CC(=O)N(CC)[C@@H](CC(C)C)C(=O)N[C@@H]([C@@H](C)CC)C(=O)N(C)CC(=O)N(C)[C@H]3CC(C)=CCN(C3=O)[C@@H](Cc3ccc(C(F)(F)F)cc3)C(=O)N(C)CC(=O)N[C@@H](CCc3cc(F)c(C(F)(F)F)c(F)c3)C(=O)N2C1` [PP1037]: the “NRAS/KRAS (ratio of KD value with respect to NRAS to KD value with respect to KRAS)” value in experiment [1] was “C (A compound having a KD ratio of 0.1 or more and less than 3 is denoted as C)”. In experiment [2], the “HRAS/KRAS (ratio of KD value with respect to HRAS to KD value with respect to KRAS)” value was “C (A compound having a KD ratio of 0.1 or more and less than 3 is denoted as C)”.

`CCO[C@@H]1C[C@H]2C(=O)NC3(CCCC3)C(=O)N(C)[C@@H](C3CCCC3)C(=O)N(C)[C@H](C(=O)N3CCOCC3)CC(=O)N(C)[C@@H](CC(C)C)C(=O)N[C@@H]([C@@H](C)CC)C(=O)N(C)CC(=O)N(C)[C@H]3CC(C)=CCN(C3=O)[C@@H](Cc3ccc(C(F)(F)F)cc3)C(=O)N(C)CC(=O)N[C@@H](CCc3cc(F)c(C(F)(F)F)c(F)c3)C(=O)N2C1` [PP1038]: the “NRAS/KRAS (ratio of KD value with respect to NRAS to KD value with respect to KRAS)” value in experiment [1] was “C (A compound having a KD ratio of 0.1 or more and less than 3 is denoted as C)”. In addition, in experiment [2], the “HRAS/KRAS (ratio of KD value with respect to HRAS to KD value with respect to KRAS)” value is “C (A compound having a KD ratio of 0.1 or more and less than 3 is denoted as C)”.

Regarding `CCO[C@@H]1C[C@H]2C(=O)NC3(CCC3)C(=O)N(C)[C@@H](C3CCCC3)C(=O)N(C)[C@H](C(=O)N3CCOCC3)CC(=O)N(C)[C@@H](CC(C)C)C(=O)N[C@@H]([C@@H](C)CC)C(=O)N(C)CC(=O)N(C)[C@H]3CC(C)=CCN(C3=O)[C@@H](Cc3ccc(C(F)(F)F)cc3)C(=O)N(C)CC(=O)N[C@@H](CCc3cc(F)c(C(F)(F)F)c(F)c3)C(=O)N2C1` [PP1039], the “NRAS/KRAS (ratio of KD value with respect to NRAS to KD value with respect to KRAS)” value in experiment [1] is “C (A compound having a KD ratio of 0.1 or more and less than 3 is denoted as C)”. In addition, the “HRAS/KRAS (ratio of KD value with respect to HRAS to KD value with respect to KRAS)” value in experiment [2] is “C (A compound having a KD ratio of 0.1 or more and less than 3 is denoted as C)”.

With `CCO[C@@H]1C[C@H]2C(=O)NC3(CCC3)C(=O)N(C)[C@@H](C3CCCC3)C(=O)N(C)[C@H](C(=O)N3CCOCC3)CC(=O)N(C)[C@@H](CC(C)C)C(=O)N[C@@H]([C@@H](C)CC)C(=O)N3CC[C@H]3C(=O)N(C)[C@H]3CC(C)=CCN(C3=O)[C@@H](Cc3ccc(C(F)(F)F)cc3)C(=O)N(C)CC(=O)N[C@@H](CCc3cc(F)c(C(F)(F)F)c(F)c3)C(=O)N2C1` [PP1040], the “NRAS/KRAS (ratio of KD value with respect to NRAS to KD value with respect to KRAS)” value in experiment [1] is “C (A compound having a KD ratio of 0.1 or more and less than 3 is denoted as C)”. In experiment [2], the “HRAS/KRAS (ratio of KD value with respect to HRAS to KD value with respect to KRAS)” value is “C (A compound having a KD ratio of 0.1 or more and less than 3 is denoted as C)”.

For the compound `CCO[C@@H]1C[C@H]2C(=O)NC3(CCC3)C(=O)N(C)[C@@H](C3CCCC3)C(=O)N(C)[C@H](C(=O)N3CCOCC3)CC(=O)N(C)[C@@H](CC)C(=O)N[C@@H]([C@@H](C)CC)C(=O)N(C)CC(=O)N(C)[C@H]3CC(C)=CCN(C3=O)[C@@H](Cc3ccc(C(F)(F)F)cc3)C(=O)N(C)CC(=O)N[C@@H](CCc3cc(F)c(C(F)(F)F)c(F)c3)C(=O)N2C1` [PP1041], the “NRAS/KRAS (ratio of KD value with respect to NRAS to KD value with respect to KRAS)” value in experiment [1] was “C (A compound having a KD ratio of 0.1 or more and less than 3 is denoted as C)”. Moreover, in experiment [2], the “HRAS/KRAS (ratio of KD value with respect to HRAS to KD value with respect to KRAS)” value was “C (A compound having a KD ratio of 0.1 or more and less than 3 is denoted as C)”.

Regarding `CCO[C@@H]1C[C@H]2C(=O)NC3(CCC3)C(=O)N(C)[C@@H](C3CCCC3)C(=O)N(C)[C@H](C(=O)N3CCOCC3)CC(=O)N(C)[C@@H](CC)C(=O)N[C@@H]([C@@H](C)CC)C(=O)N3CC[C@H]3C(=O)N(C)[C@H]3CC(C)=CCN(C3=O)[C@@H](Cc3ccc(C(F)(F)F)cc3)C(=O)N(C)CC(=O)N[C@@H](CCc3cc(F)c(C(F)(F)F)c(F)c3)C(=O)N2C1` [PP1042], the “NRAS/KRAS (ratio of KD value with respect to NRAS to KD value with respect to KRAS)” value in experiment [1] was “C (A compound having a KD ratio of 0.1 or more and less than 3 is denoted as C)”. In addition, in experiment [2], the “HRAS/KRAS (ratio of KD value with respect to HRAS to KD value with respect to KRAS)” value is “C (A compound having a KD ratio of 0.1 or more and less than 3 is denoted as C)”.

As for `CCO[C@@H]1C[C@H]2C(=O)NC3(CCCC3)C(=O)N(C)[C@@H](C3CCCC3)C(=O)N(C)[C@H](C(=O)N3CCOCC3)CC(=O)N(C)[C@@H](CC)C(=O)N[C@@H]([C@@H](C)CC)C(=O)N(C)CC(=O)N(C)[C@H]3CC(C)=CCN(C3=O)[C@@H](Cc3ccc(C(F)(F)F)cc3)C(=O)N(C)CC(=O)N[C@@H](CCc3cc(F)c(C(F)(F)F)c(F)c3)C(=O)N2C1` [PP1043], in experiment [1], the “NRAS/KRAS (ratio of KD value with respect to NRAS to KD value with respect to KRAS)” value was “C (A compound having a KD ratio of 0.1 or more and less than 3 is denoted as C)”. Further, the “HRAS/KRAS (ratio of KD value with respect to HRAS to KD value with respect to KRAS)” value in experiment [2] is “C (A compound having a KD ratio of 0.1 or more and less than 3 is denoted as C)”.

As for `CCO[C@@H]1C[C@H]2C(=O)NC3(CCC3)C(=O)N(C)[C@@H](C3CCCC3)C(=O)N(C)[C@H](C(=O)N3CCOCC3)CC(=O)N(CC)[C@@H](CC(C)C)C(=O)N[C@@H]([C@@H](C)CC)C(=O)N(C)CC(=O)N(C)[C@H]3CC(C)=CCN(C3=O)[C@@H](Cc3ccc(C(F)(F)F)cc3)C(=O)N(C)CC(=O)N[C@@H](CCc3cc(F)c(C(F)(F)F)c(F)c3)C(=O)N2C1` [PP1044], in experiment [1], the “NRAS/KRAS (ratio of KD value with respect to NRAS to KD value with respect to KRAS)” value was “C (A compound having a KD ratio of 0.1 or more and less than 3 is denoted as C)”. Moreover, the “HRAS/KRAS (ratio of KD value with respect to HRAS to KD value with respect to KRAS)” value in experiment [2] is “C (A compound having a KD ratio of 0.1 or more and less than 3 is denoted as C)”.

In the case of `CCO[C@@H]1C[C@H]2C(=O)NC3(CCCC3)C(=O)N(C)[C@@H](C3CCCC3)C(=O)N(C)[C@H](C(=O)N(C)C)CC(=O)N(C)[C@@H](CC(C)C)C(=O)N[C@@H]([C@@H](C)CC)C(=O)N(C)CC(=O)N(C)[C@H]3CC(C)=C(C)CN(C3=O)[C@@H](Cc3ccc(C(F)(F)F)cc3)C(=O)N(C)CC(=O)N[C@@H](CCc3cc(F)c(C(F)(F)F)c(F)c3)C(=O)N2C1` [PP1045], the “NRAS/KRAS (ratio of KD value with respect to NRAS to KD value with respect to KRAS)” value in experiment [1] was “C (A compound having a KD ratio of 0.1 or more and less than 3 is denoted as C)”. Also, the “HRAS/KRAS (ratio of KD value with respect to HRAS to KD value with respect to KRAS)” value in experiment [2] is “C (A compound having a KD ratio of 0.1 or more and less than 3 is denoted as C)”.

Regarding `CCO[C@@H]1C[C@H]2C(=O)NC3(CCC3)C(=O)N(C)[C@@H](C3CCCC3)C(=O)N(C)[C@H](C(=O)N(C)C)CC(=O)N(C)[C@@H](CC(C)C)C(=O)N[C@@H]([C@@H](C)CC)C(=O)N3CC[C@H]3C(=O)N(C)[C@H]3CC(C)=C(C)CN(C3=O)[C@@H](Cc3ccc(C(F)(F)F)cc3)C(=O)N(C)CC(=O)N[C@@H](CCc3cc(F)c(C(F)(F)F)c(F)c3)C(=O)N2C1` [PP1047], the “NRAS/KRAS (ratio of KD value with respect to NRAS to KD value with respect to KRAS)” value in experiment [1] was “C (A compound having a KD ratio of 0.1 or more and less than 3 is denoted as C)”. In addition, the “HRAS/KRAS (ratio of KD value with respect to HRAS to KD value with respect to KRAS)” value in experiment [2] was “C (A compound having a KD ratio of 0.1 or more and less than 3 is denoted as C)”.

For `CCO[C@@H]1C[C@H]2C(=O)NC3(CCC3)C(=O)N(C)[C@@H](C3CCCC3)C(=O)N(C)[C@H](C(=O)N(C)C)CC(=O)N(C)[C@@H](CC)C(=O)N[C@@H]([C@@H](C)CC)C(=O)N(C)CC(=O)N(C)[C@H]3CC(C)=C(C)CN(C3=O)[C@@H](Cc3ccc(C(F)(F)F)cc3)C(=O)N(C)CC(=O)N[C@@H](CCc3cc(F)c(C(F)(F)F)c(F)c3)C(=O)N2C1` [PP1048], the “NRAS/KRAS (ratio of KD value with respect to NRAS to KD value with respect to KRAS)” value in experiment [1] is “C (A compound having a KD ratio of 0.1 or more and less than 3 is denoted as C)”. Moreover, the “HRAS/KRAS (ratio of KD value with respect to HRAS to KD value with respect to KRAS)” value in experiment [2] was “C (A compound having a KD ratio of 0.1 or more and less than 3 is denoted as C)”.

Turning to `CCO[C@@H]1C[C@H]2C(=O)NC3(CCC3)C(=O)N(C)[C@@H](C3CCCC3)C(=O)N(C)[C@H](C(=O)N(C)C)CC(=O)N(C)[C@@H](CC)C(=O)N[C@@H]([C@@H](C)CC)C(=O)N3CC[C@H]3C(=O)N(C)[C@H]3CC(C)=C(C)CN(C3=O)[C@@H](Cc3ccc(C(F)(F)F)cc3)C(=O)N(C)CC(=O)N[C@@H](CCc3cc(F)c(C(F)(F)F)c(F)c3)C(=O)N2C1` [PP1049], the “NRAS/KRAS (ratio of KD value with respect to NRAS to KD value with respect to KRAS)” value in experiment [1] is “C (A compound having a KD ratio of 0.1 or more and less than 3 is denoted as C)”. In addition, the “HRAS/KRAS (ratio of KD value with respect to HRAS to KD value with respect to KRAS)” value in experiment [2] was “C (A compound having a KD ratio of 0.1 or more and less than 3 is denoted as C)”.

With `CCO[C@@H]1C[C@H]2C(=O)NC3(CCCC3)C(=O)N(C)[C@@H](C3CCCC3)C(=O)N(C)[C@H](C(=O)N(C)C)CC(=O)N(C)[C@@H](CC)C(=O)N[C@@H]([C@@H](C)CC)C(=O)N(C)CC(=O)N(C)[C@H]3CC(C)=C(C)CN(C3=O)[C@@H](Cc3ccc(C(F)(F)F)cc3)C(=O)N(C)CC(=O)N[C@@H](CCc3cc(F)c(C(F)(F)F)c(F)c3)C(=O)N2C1` [PP1050], in experiment [1], the “NRAS/KRAS (ratio of KD value with respect to NRAS to KD value with respect to KRAS)” value was “C (A compound having a KD ratio of 0.1 or more and less than 3 is denoted as C)”. Moreover, the “HRAS/KRAS (ratio of KD value with respect to HRAS to KD value with respect to KRAS)” value in experiment [2] is “C (A compound having a KD ratio of 0.1 or more and less than 3 is denoted as C)”.

As for `CCO[C@@H]1C[C@H]2C(=O)NC3(CCC3)C(=O)N(C)[C@@H](C3CCCC3)C(=O)N(C)[C@H](C(=O)N(C)C)CC(=O)N(CC)[C@@H](CC(C)C)C(=O)N[C@@H]([C@@H](C)CC)C(=O)N(C)CC(=O)N(C)[C@H]3CC(C)=C(C)CN(C3=O)[C@@H](Cc3ccc(C(F)(F)F)cc3)C(=O)N(C)CC(=O)N[C@@H](CCc3cc(F)c(C(F)(F)F)c(F)c3)C(=O)N2C1` [PP1051], the “NRAS/KRAS (ratio of KD value with respect to NRAS to KD value with respect to KRAS)” value in experiment [1] was “C (A compound having a KD ratio of 0.1 or more and less than 3 is denoted as C)”. Also, the “HRAS/KRAS (ratio of KD value with respect to HRAS to KD value with respect to KRAS)” value in experiment [2] was “C (A compound having a KD ratio of 0.1 or more and less than 3 is denoted as C)”.
